For the experiment, the system named is ruminal epithelium. Put plainly: Ussing chamber: transepithelial current and conductance. The class given is cell-based. Particulars: sheep ruminal epithelium, mucosal addition, short-circuit mode, 37° C. The text has this:
All sheep were slaughtered in accordance with German laws for the protection of animals. Removal of tissue occurred directly after death, was stripped and transported to the laboratory in a warm and gassed transport buffer.
The tissue was mounted into conventional Ussing chambers with an exposure area of 3.14 cm^2 (as described in (Martens and Gabel, 1988, Transport of Na and Cl across the epithelium of ruminant forestomachs: rumen and omasum. A review. Comparative Biochemistry and Physiology Part A: Physiology 90, 569-575)). The chambers contained 16 ml of mucosal and serosal buffer, which was circulated with a gas lift system and warmed to 37° C. with a water jacket.
After ten minutes the chambers were clamped to short circuit mode (Mussler Scientific Instruments, Aachen, Germany). Transepithelial current (Isc) and conductance (Gt) were measured continuously.
After an equilibration time of about 30 min under short-circuit conditions, the Ussing chambers were divided into two groups, depending on the transepithelial conductance of the tissues inside the chambers. Group 1 (TRP-group) and Group 2 (TRP-PG-group.)
Depending on the group 4.8 μl of TRP agonist combined with propylene glycol or 2.4 mg of TRP Agonist was added to the mucosal side of the tissues. Transepithelial current (Isc) and transepithelial conductance (Gt) were measured continuously. […]

Each structure is given as a SMILES string.

Consider `CC1CCC(C(C)C)C(O)C1` (centres unmarked) [TRP (menthol), menthol], for which the “Transepithelial conductance (Gt), maximum increase after addition, mean” value is “+0.563” and the “Transepithelial current (Isc), maximum increase after addition, mean” value is “+0.727”.

Source of the values: US20210127709A1, “FEED ADDITIVE COMPRISING A TRP MODULATOR” (PerformaNat GmbH, priority 2018, published 2021).
